Assay results reported in ChEMBL document CHEMBL1154899, “Synthesis and biological evaluation of caffeic acid 3,4-dihydroxyphenethyl ester” (J Nat Prod, 2010).

Key:
Format in all cases: functional
EKVX = test: Antiproliferative activity against human EKVX cells assessed as cell growth at 50 uM by SRB assay; settings: read-out: Activity
HOP-62 [1] = test: Antiproliferative activity against human HOP62 cells assessed as cell growth at 50 uM by SRB assay; settings: read-out: Activity
NCI-H322M = test: Antiproliferative activity against human NCI-H322M cells assessed as cell growth at 50 uM by SRB assay; settings: read-out: Activity
OVCAR-4 [2] = test: Antiproliferative activity against human OVCAR4 cells assessed as cell growth at 50 uM by SRB assay; settings: read-out: Activity
HCT-116 = test: Antiproliferative activity against human HCT116 cells assessed as cell growth at 5 uM by SRB assay; settings: read-out: Activity
SF-268 = test: Antiproliferative activity against human SF268 cells assessed as cell growth at 5 uM by SRB assay; settings: read-out: Activity
SF-295 = test: Antiproliferative activity against human SF295 cells assessed as cell growth at 5 uM by SRB assay; settings: read-out: Activity
SNB-19 [3] = test: Antiproliferative activity against human SNB19 cells assessed as cell growth at 5 uM by SRB assay; settings: read-out: Activity
U-251 = test: Antiproliferative activity against human U251 cells assessed as cell growth at 5 uM by SRB assay; settings: read-out: Activity
LOX IMVI = test: Antiproliferative activity against human LOXIMVI cells assessed as cell growth at 5 uM by SRB assay; settings: read-out: Activity
IGROV-1 = test: Antiproliferative activity against human IGROV1 cells assessed as cell growth at 5 uM by SRB assay; settings: read-out: Activity
MDA-MB-435 [4] = test: Antiproliferative activity against human MDA-MB-435 cells assessed as cell growth at 50 uM by SRB assay; settings: read-out: Activity
SN12C = test: Antiproliferative activity against human SN12C cells assessed as cell growth at 500 uM by SRB assay; settings: read-out: Activity
UO-31 = test: Antiproliferative activity against human UO31 cells assessed as cell growth at 500 uM by SRB assay; settings: read-out: Activity
MCF7 = test: Antiproliferative activity against human MCF7 cells assessed as cell growth at 500 uM by SRB assay; settings: read-out: Activity
MDA-MB-435 [5] = test: Antiproliferative activity against human MDA-MB-435 cells assessed as cell growth at 500 uM by SRB assay; settings: read-out: Activity
HL-60(TB) [6] = test: Antiproliferative activity against human HL-60(TB) cells assessed as cell growth at 5 mM by SRB assay; settings: read-out: Activity
[7] = Antiproliferative activity against human Hs 578T cells assessed as cell growth at 5 uM by SRB assay; settings: read-out: Activity
A498 = test: Antiproliferative activity against human A498 cells assessed as cell growth at […] by SRB assay; settings: read-out: Activity
HCC 2998 = test: Antiproliferative activity against human HCC2998 cells assessed as cell growth at […] by SRB assay; settings: read-out: Activity
SR [8] = test: Antiproliferative activity against human SR cells assessed as cell growth at 500 uM by SRB assay; settings: read-out: Activity
NCI-H460 [9] = test: Antiproliferative activity against human NCI-H460 cells assessed as cell growth at 500 uM by SRB assay; settings: read-out: Activity
NCI-H522 [10] = test: Antiproliferative activity against human NCI-H522 cells assessed as cell growth at 500 uM by SRB assay; settings: read-out: Activity
SNB-19 [11] = test: Antiproliferative activity against human SNB19 cells assessed as cell growth at 500 uM by SRB assay; settings: read-out: Activity
SNB-75 = test: Antiproliferative activity against human SNB75 cells assessed as cell growth at 500 uM by SRB assay; settings: read-out: Activity
OVCAR-3 [12] = test: Antiproliferative activity against human OVCAR-3 cells assessed as cell growth at 500 uM by SRB assay; settings: read-out: Activity
OVCAR-4 [13] = test: Antiproliferative activity against human OVCAR4 cells assessed as cell growth at 500 uM by SRB assay; settings: read-out: Activity
OVCAR-5 [14] = test: Antiproliferative activity against human OVCAR5 cells at 500 uM by SRB assay
OVCAR-5 [15] = test: Antiproliferative activity against human OVCAR5 cells at 0.5 uM by SRB assay
CCRF-CEM = test: Antiproliferative activity against human CCRF-CEM cells by SRB assay
HL-60(TB) [16] = test: Antiproliferative activity against human HL-60(TB) cells by SRB assay
Malme-3M [17] = test: Antiproliferative activity against human MALME-3M cells by SRB assay
RXF 393 = test: Antiproliferative activity against human RXF393 cells by SRB assay
NCI/ADR-RES = test: Antiproliferative activity against human NCI/ADR-RES cells by SRB assay
SK-MEL-5 = test: Antiproliferative activity against human SK-MEL-5 cells assessed as cell growth at 0.5 uM by SRB assay; settings: read-out: Activity
OVCAR-3 [18] = test: Antiproliferative activity against human OVCAR-3 cells assessed as cell growth at 0.5 uM by SRB assay; settings: read-out: Activity
786-0 = test: Antiproliferative activity against human 786-0 cells assessed as cell growth at 0.5 uM by SRB assay; settings: read-out: Activity
TK-10 = test: Antiproliferative activity against human TK10 cells assessed as cell growth at 0.5 uM by SRB assay; settings: read-out: Activity
SR [19] = test: Antiproliferative activity against human SR cells assessed as cell growth at 0.5 uM by SRB assay; settings: read-out: Activity
SW-620 = test: Antiproliferative activity against human SW620 cells assessed as cell growth at 0.5 uM by SRB assay; settings: read-out: Activity
Malme-3M [20] = test: Antiproliferative activity against human MALME-3M cells assessed as cell growth at 0.5 uM by SRB assay; settings: read-out: Activity
HOP-62 [21] = test: Antiproliferative activity against human HOP62 cells assessed as cell growth at 5 uM by SRB assay; settings: read-out: Activity
NCI-H226 = test: Antiproliferative activity against human NCI-H226 cells assessed as cell growth at 5 uM by SRB assay; settings: read-out: Activity
NCI-H460 [22] = test: Antiproliferative activity against human NCI-H460 cells assessed as cell growth at 5 uM by SRB assay; settings: read-out: Activity
NCI-H522 [23] = test: Antiproliferative activity against human NCI-H522 cells assessed as cell growth at 5 uM by SRB assay; settings: read-out: Activity
[24] = read-out: LC50 (the source's name)
[25] = read-out: pLC50 (the source's name) (converted)

`O=C(/C=C/c1ccc(O)c(O)c1)OCCc1ccc(O)c(O)c1` showed a growth at 50 µM (EKVX) of 88%, a growth at 50 µM (HOP-62 [1]) of 97% and a growth at 50 µM (NCI-H322M) of 97%. The growth at 50 µM (OVCAR-4 [2]) was 92%, the growth at 5 µM (HCT-116) was 97% and the growth at 5 µM (SF-268) was 91%. It also gave a growth at 5 µM (SF-295) of 89%, a growth at 5 µM (SNB-19 [3]) of 95% and a growth at 5 µM (U-251) of 97%. The growth at 5 µM (LOX IMVI) was 101%, the growth at 5 µM (IGROV-1) was 102% and the growth at 50 µM (MDA-MB-435 [4]) was 89%. It also gave a growth at 500 µM (SN12C) of 65%, a growth at 500 µM (UO-31) of 23% and a growth at 500 µM (MCF7) of 45%. It also gave a growth at 500 µM (MDA-MB-435 [5]) of 48%, a growth at 5000 µM (HL-60(TB) [6]) of -30% and a growth at 5 µM [7] of 80%. The growth (A498) was -11%, the growth (HCC 2998) was 18% and the growth at 500 µM (SR [8]) was 20%. It also gave a growth at 500 µM (NCI-H460 [9]) of 94%, a growth at 500 µM (NCI-H522 [10]) of 10% and a growth at 500 µM (SNB-19 [11]) of 79%. For the same molecule, the growth at 500 µM (SNB-75) was 58%, the growth at 500 µM (OVCAR-3 [12]) was 50% and the growth at 500 µM (OVCAR-4 [13]) was 58%. It also gave an Activity (OVCAR-5 [14]) of 102%, an Activity (OVCAR-5 [15]) of 94% and a GI50 (CCRF-CEM) of 0.75 µM. It also gave a CC50 (CCRF-CEM; [24]) greater than 50 µM, a TGI (CCRF-CEM; read-out: TGI) of 5.33 µM and a CC50 (CCRF-CEM; [25]) greater than 50.1 µM. The TGI (CCRF-CEM; read-out: pTGI (converted)) was 5.37 µM, the GI50 (HL-60(TB) [16]; read-out: GI50) was 2.54 µM and the CC50 (HL-60(TB) [16]; [24]) was greater than 50 µM. The TGI (HL-60(TB) [16]; read-out: TGI) was 17.7 µM, the GI50 (HL-60(TB) [16]; read-out: pGI50 (converted)) was 2.63 µM and the CC50 (HL-60(TB) [16]; [25]) was greater than 50.1 µM. It also gave a TGI (HL-60(TB) [16]; read-out: pTGI (converted)) of 17.8 µM, a GI50 (Malme-3M [17]; read-out: GI50) of 18.6 µM and a CC50 (Malme-3M [17]; [24]) greater than 50 µM. The TGI (Malme-3M [17]; read-out: TGI) was greater than 50 µM, the GI50 (Malme-3M [17]; read-out: pGI50 (converted)) was 18.6 µM and the CC50 (Malme-3M [17]; [25]) was greater than 50.1 µM. It also gave a TGI (Malme-3M [17]; read-out: pTGI) greater than 50.1 µM, a GI50 (RXF 393; read-out: GI50) of 15.5 µM and a CC50 (RXF 393; [24]) greater than 50 µM. It also gave a TGI (RXF 393; read-out: TGI) greater than 50 µM, a GI50 (RXF 393; read-out: pGI50 (converted)) of 15.5 µM and a CC50 (RXF 393; [25]) greater than 50.1 µM. It also gave a TGI (RXF 393; read-out: pTGI) greater than 50.1 µM, a GI50 (NCI/ADR-RES; read-out: GI50) of 10.9 µM and a CC50 (NCI/ADR-RES; [24]) greater than 50 µM. The TGI (NCI/ADR-RES; read-out: TGI) was 44.9 µM, the GI50 (NCI/ADR-RES; read-out: pGI50 (converted)) was 10.5 µM and the CC50 (NCI/ADR-RES; [25]) was greater than 50.1 µM. For the same molecule, the TGI (NCI/ADR-RES; read-out: pTGI (converted)) was 44.7 µM, the growth at 0.5 µM (SK-MEL-5) was 97% and the growth at 0.5 µM (OVCAR-3 [18]) was 104%. It also gave a growth at 0.5 µM (786-0) of 97%, a growth at 0.5 µM (TK-10) of 92% and a growth at 0.5 µM (SR [19]) of 92%. It also gave a growth at 0.5 µM (SW-620) of 98%, a growth at 0.5 µM (Malme-3M [20]) of 91% and a growth at 5 µM (HOP-62 [21]) of 89%. The growth at 5 µM (NCI-H226) was 99%, the growth at 5 µM (NCI-H460 [22]) was 92% and the growth at 5 µM (NCI-H522 [23]) was 89%.
